Data reported in patent US10450297B2, “Sulfonyl amide derivatives for the treatment of abnormal cell growth” (Pfizer, Inc., priority 2007, dated 2019).

Biological target: FAK kinase (catalytic construct FAK(410-689)) (Homo sapiens (Human), UniProt Q05397)
Assay: FAKcd kinase ELISA (inhibition of poly-glu-tyr phosphorylation by FAK(410-689))
Type: biochemical
Settings: 50 μM final ATP

Sequence of FAK kinase (catalytic construct FAK(410-689)) (Q05397 410-689): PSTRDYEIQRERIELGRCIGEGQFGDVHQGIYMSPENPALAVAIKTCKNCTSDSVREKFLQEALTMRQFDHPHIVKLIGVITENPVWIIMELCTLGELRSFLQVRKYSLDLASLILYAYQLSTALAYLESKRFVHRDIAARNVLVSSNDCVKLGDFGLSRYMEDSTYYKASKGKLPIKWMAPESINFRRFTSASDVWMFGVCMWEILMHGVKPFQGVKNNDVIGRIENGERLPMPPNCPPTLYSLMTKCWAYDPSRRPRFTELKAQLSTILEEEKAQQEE

Structure (SMILES)	IC50 [nM]
CN(c1ncccc1CNc1nc(Nc2ccc(C(=O)NCCCCCO)cc2)ncc1C(F)(F)F)S(C)(=O)=O [Compound 270, N-(5-hydroxypentyl)-4-({4-[({2-[methyl(methylsulfonyl)amino]pyridin-3-yl}methyl)amino]-5-(trifluoromethyl)pyrimidin-2-yl}amino)benzamide]	0.99
CN(c1ncccc1CNc1nc(Nc2ccc(C(=O)NCc3ccccc3)cc2)ncc1C(F)(F)F)S(C)(=O)=O [Compound 271, N-benzyl-4-({4-[({2-[methyl(methylsulfonyl)amino]pyridin-3-yl}methyl)amino]-5-(trifluoromethyl)pyrimidin-2-yl}amino)benzamide]	1.14
CN(c1ncccc1CNc1nc(Nc2ccc(C(=O)N3CC(F)C3)cc2)ncc1C(F)(F)F)S(C)(=O)=O [Compound 272, N-[3-(([2-({4-[(3-fluoroazetidin-1-yl)carbonyl]phenyl}amino)-5-(trifluoromethyl)pyrimidin-4-yl]amino}methyl)pyridin-2-yl]-N-methylmethane-sulfonamide]	2.64
CN(c1ncccc1CNc1nc(Nc2ccc(C(=O)NC[C@@H]3C[C@H]3CO)cc2)ncc1C(F)(F)F)S(C)(=O)=O [Compound 273, N-{[(1R,2R)-2-(hydroxymethyl)cyclopropyl}methyl}-4-({4-[({2-[methyl(methylsulfonyl)amino]pyridin-3-yl}methyl)amino]-5-(trifluoromethyl)pyrimidin-2-yl}amino)benzamide]	2.69
CN(C)CCN(C)C(=O)c1ccc(Nc2ncc(C(F)(F)F)c(NCc3cccnc3N(C)S(C)(=O)=O)n2)cc1 [Compound 274, N-[2-(dimethylamino)ethyl]-N-methyl-4-({4-[({2-[methyl(methylsulfonyl)amino]pyridin-3-yl}methyl)amino]-5-(trifluoromethyl)pyrimidin-2-yl}amino)benzamide]	4.66
CN(c1ncccc1CNc1nc(Nc2ccc(C(=O)N3CCC[C@@H](O)C3)cc2)ncc1C(F)(F)F)S(C)(=O)=O [Compound 275, N-{3-[({2-[(4-{[(3R)-3-hydroxypiperidin-1-yl]carbonyl}phenyl)amino]-5-(trifluoromethyl)pyrimidin-4-yl}amino)methyl]pyridin-2-yl}-N-methylmethane-sulfonamide]	2.36
COCCNC(=O)c1ccc(Nc2ncc(C(F)(F)F)c(NCc3cccnc3N(C)S(C)(=O)=O)n2)cc1 [Compound 276, N-(2-methoxyethyl)-4-({4-[({2-[methyl(methylsulfonyl)amino]pyridin-3-yl}methyl)amino]-5-(trifluoromethyl)pyrimidin-2-yl}amino)benzamide]	0.6
COCCCN(C)C(=O)c1ccc(Nc2ncc(C(F)(F)F)c(NCc3cccnc3N(C)S(C)(=O)=O)n2)cc1 [Compound 277, N-(3-methoxypropyl)-N-methyl-4-({4-[({2-[methyl(methylsulfonyl)amino]pyridin-3-yl}methyl)arnino]-5-(trifluoromethyl)pyrimidin-2-yl}amino)benzamide]	2.36
C[C@@H]1COCCN1C(=O)c1ccc(Nc2ncc(C(F)(F)F)c(NCc3cccnc3N(C)S(C)(=O)=O)n2)cc1 [Compound 278, N-methyl-N-{3-(({2-[(4-{[(3R)-3-methylmorpholin-4-yl]carbonyl}phenyl)amino]-5-(trlfluoromethyl)pyrimidin-4-yl}amino)methyl]pyridin-2-yl]methanesulfonamide]	6.64
CN(C)C1CN(C(=O)c2ccc(Nc3ncc(C(F)(F)F)c(NCc4cccnc4N(C)S(C)(=O)=O)n3)cc2)C1 [Compound 279, N-{3-[({2-[(4-{[3-(dimethylamino)azelidin-1-yl]carbonyl}phenyl)amino]-5-(trifluoromethyl)pyrimidin-4-yl}amino)methyl]pyridin-2-yl}-N-methylmethane-sulfonamide]	3.97
COc1ccc(Nc2ncc(C(F)(F)F)c(NCc3cccnc3N(C)S(C)(=O)=O)n2)cc1 [Compound 280, N-{3-[({2-[(4-methoxyphenyl)amino]-5-(trifluoromethyl)pyrimidin-4-yl}amino)methyl]pyridin-2-yl}-N-methylmethane-sulfonamide]	0.6
COc1cccc(Nc2ncc(C(F)(F)F)c(NCc3cccnc3N(C)S(C)(=O)=O)n2)c1 [Compound 281, N-{3-[({2-[(3-methoxyphenyl)amino]-5-(trifluoromethyl)pyrimidin-4-yl}amino)methyl]pyridin-2-yl}-N-methylmethane-sulfonamide]	0.6
COc1ccc(Nc2ncc(C(F)(F)F)c(NCc3cccnc3N(C)S(C)(=O)=O)n2)cc1OC [Compound 282, N-{3-[({2-[(3,4-dimethoxyphenyl)amino]-5-(trifluoromethyl)pyrimidin-4-yl}amino)methyl]pyridin-2-yl}-N-methylmethane-sulfonamide]	0.6
CN(c1ncccc1CNc1nc(Nc2cccc(CO)c2)ncc1C(F)(F)F)S(C)(=O)=O [Compound 283, N-[3-({[2-{[3-(hydroxymethyl)phenyl]amino}-5-(trifluoromethyl)pyrimidin-4-yl]amino}methyl)pyridin-2-yl)-N-methylmethane-sulfonamide]	0.6
CN(c1ncccc1CNc1nc(Nc2ccc(OC(F)(F)F)cc2)ncc1C(F)(F)F)S(C)(=O)=O [Compound 284, N-methyl-N-[3-({[2-{[4-(trifluoromethoxy)phenyl]amino}-5-(trifluoromethyl)pyrimidin-4-yl]amino}rnethyl)pyridin-2-yl]methanesulfonamide]	1.83
CN(c1ncccc1CNc1nc(Nc2ccncc2)ncc1C(F)(F)F)S(C)(=O)=O [Compound 285, N-methyl-N-[3-({[2-(pyridin-4-ylamino)-5-(trifluoromethyl)pyrimidin-4-yl]amino}methyl)pyridin-2-yl]methanesulfonamide]	1.27
CN(c1ncccc1CNc1nc(Nc2cccc(C#N)c2)ncc1C(F)(F)F)S(C)(=O)=O [Compound 286, N-{3-[({2-[(3-cyanophenyl)amino]-5-(trifluoromethyl)pyrimidin-4-yl}amino)methyl]pyridin-2-yl}-N-methylmethanesulfonamide]	1.64
Cc1cccc(NS(C)(=O)=O)c1CNc1nc(Nc2ccc(-c3nnn[nH]3)cc2)ncc1C(F)(F)F [Compound 287, N-[3-methyl-2-({[2-{[4-(1H-tetrazol-5-yl)phenyl]amino}-5-(trifluoromethyl)pyrimidin-4-yl]amino}methyl)phenyl]methanesulfonamide]	1.95
Cc1cc(Nc2ncc(C(F)(F)F)c(NCc3cccnc3N(C)S(C)(=O)=O)n2)on1 [Compound 289, N-methyl-N-{3-[({2-[(3-methylisoxazol-5-yl)amino)-5-(trifluoromethyl)pyrimidin-4-yl}amino)methyl]pyridin-2-yl}methanesulfonamide]	18.2
CN(c1ncccc1CNc1nc(Nc2ccc(N3CCOCC3)cc2)ncc1C(F)(F)F)S(C)(=O)=O [Compound 291, N-methyl-N-{3-[({2-[(4-morpholin-4-ylphenyl)amino]-5-(trifluoromethyl)pyrimidin-4-yl}amino)methyl]pyridin-2-yl}methanesulfonamide]	< 0.595
CN(c1ncccc1CNc1nc(Nc2ccc(C#N)nc2)ncc1C(F)(F)F)S(C)(=O)=O [Compound 292, N-{3-[({2-[(6-cyanopyridin-3-yl)amino]-5-(trifluoromethyl)pyrimidin-4-yl}amino)methyl]pyridin-2-yl}-N-methylmethane-sulfonamide]	23.3
CN(c1ncccc1CNc1nc(Nc2ccc(N3CCOCC3)cn2)ncc1C(F)(F)F)S(C)(=O)=O [Compound 293, N-methyl-N-{3-[({2-[(5-morpholin-4-ylpyridin-2-yl)amino]-5-(trifluoromethyl)pyrimidin-4-yl}amino)methyl]pyridin-2-yl]methanesulfonamide]	< 0.595
Cc1ccc(CNc2nc(Nc3cccc(C(N)=O)c3)ncc2C(F)(F)F)c(N(C)S(C)(=O)=O)n1 [Compound 294, 3-({4-[({6-methyl-2-[methyl(methylsulfonyl)amino]pyridin-3-yl}methyl)amino]-5-(trifluoromethyl)pyrimidin-2-yl}amino)benzamide]	< 0.595
CN(c1cccnc1CNc1nc(Nc2cccc(C(N)=O)c2)ncc1C(F)(F)F)S(C)(=O)=O [Compound 295, 3-({4-[({3-[methyl(methylsulfonyl)amino]pyridin-2-yl}methyl)amino]-5-(trifluoromethyl)pyrimidin-2-yl}amino)benzamide]	1.33
Cc1ncc(CNc2nc(Nc3cccc(C(N)=O)c3)ncc2C(F)(F)F)c(N(C)S(C)(=O)=O)n1 [Compound 296, 3-({4-[({2-methyl-4-[methyl(methylsulfonyl)amino]pyrimidin-5-yl}methyl)amino]-5-(trifluoromethyl)pyrimidin-2-yl}amino)benzamide]	3.89
CN(c1nccnc1CNc1nc(Nc2cccc(C(N)=O)c2)ncc1C(F)(F)F)S(C)(=O)=O [Compound 297, 3-({4-[({3-[melhyl(methylsulfonyl)amino]pyrazin-2-yl}methyl)amino]-5-(trifluoromethyl)pyrimidin-2-yl}amino)benzamide]	2.26
CN(c1ncccc1CNc1nc(Nc2nccc(N)n2)ncc1C(F)(F)F)S(C)(=O)=O [Compound 298, N-{3-[({2-[(4-aminopyrimidin-2-yl)amino]-5-(trifluoromethyl)pyrimidin-4-yl}amino)methyl]pyridin-2-yl}-N-methylmethane-sulfonamide]	32.8
CN(c1ncccc1CNc1nc(Nc2ccnc(N)n2)ncc1C(F)(F)F)S(C)(=O)=O [Compound 299, N-{3-[({2-[(2-aminopyrimidin-4-yl)amino]-5-(trifluoromethyl)pyrimidin-4-yl}amino)methyl]pyridin-2-yl}-N-methylmethane-sulfonamide]	> 188
CN(c1ncccc1CNc1nc(Nc2ccc(CNS(=O)(=O)C(F)(F)F)cc2)ncc1C(F)(F)F)S(C)(=O)=O [Compound 302, 1,1,1-trifluoro-N-[4-({4-[({2-[methyl(methylsulfonyl)amino]pyridin-3-yl}methyl)amino]-5-(trifluoromethyl)pyrimidin-2-yl}amino)benzyl]methanesulfonamide]	1
